# Laboratory results reported in patent US8252748B2, “Peptide derived from neurotensin receptor 3 and use thereof in the treatment of psychiatric diseases” (Centre National de la Recherche Scientifique—CNRS, priority 2007, dated 2012).
# No end group written: not given here.
# What was measured:
# C57BL6/J mice [1] = test: Tail flick test of sensitivity to pain; assay type: in vivo, mouse; conditions: bath at 48° C.; 100 μl at 10^−6 M; 30 minutes after injection
# Protocol: This test consists of immersing the tail of a mouse in a bath at 48° C. and measuring the time it takes to withdraw it from the bath. Before any injections, a habituation test was carried out on the mouse. It consists of immersing the tail of each animal twice in the bath so as to have homogeneous groups before any treatment (obtaining a reaction time less than 12 seconds). Then the mice were injected with 100 μl of physiological saline solution (“PHYS SALINE”) or 100 μl of peptide of sequence ID No. 2 at a concentration of 10^−6 M (“PE 10^−6M”).
# (§1) The mice used were C57BL6/J mice. Each group was constituted of 10 mice.
# (§2) The measurements were taken 30 minutes after injection.
# (§3) The difference was evaluated using the Student t test.
# [2] = test system: hippocampus progenitor cells; test: Hippocampal neurogenesis (BrdU-positive cells), 2 weeks of treatment; assay type: in vivo, mouse; conditions: 10 μM propeptide injected for 2 weeks
# Protocol: Treatments with antidepressants are known to increase neurogenesis in the hippocampus (Santarelli, L., Saxe, M, Gross, C, Surget, A, Battaglia, F, Dulawa, S, Weisstaub, N, Lee, J, Duman, R, Arancio, O, Belzung, C, Hen, R et al. “Requirement of hippocampal neurogenesis for the behavioral effects of antidepressants” Science, 301: 805-809 (2003) (24). This cellular proliferation is measured from the increase of “progenitor” cells that incorporate a marker, 5-bromo-2-deoxyuridine (BrdU), and are transformed to mature neurons. The BrdU is detected by immunohistochemistry.
# On day 1, the animals are injected IP with 300 μl of an aqueous solution of 10 mM of BrdU, then put back in the cage.
# On day 2, the animals are euthanased and then the tissues are fixed by intracardiac perfusion of a cold solution of 4% paraformaldehyde. The brains are removed and then frozen at −20° C.
# Series of 40 μm sections are prepared, so as to cover the entire hippocampal structure, using a vibratome (Leica). One section out of six is retained for measuring the incorporation of BrdU by means of a monoclonal mouse anti-BrdU antibody (Becton Dickinson). […] The peroxidase activity is visualized by hydrolysis of DAB. The cells labeled in this way are counted on each section. […]
# C57BL6/J mice [3] = test: Hot plate test of sensitivity to pain; assay type: in vivo, mouse; conditions: IV 100 μl at 10^−6 M, 30 minutes after injection
# Protocol: Sensitivity to pain was measured with two tests: the hot plate test and the “tail flick” test.
# This test consists of measuring the time that a mouse licks its hind paws when it is put on a plate maintained at a given temperature. Two temperatures were used: 50 and 56° C.
# as §1
# The sensitivity to heat was then measured on the three groups of mice and the results obtained were compared.
# as §2
# The statistical difference was measured using the one-factor ANOVA test followed by the post-hoc test.
# mouse (C57Black/J) [4] = test: Tail suspension test (TST); assay type: in vivo; conditions: IV 100 μl at 1 μM per animal; 30 min after injection
# From the text: (§4) The inventors conducted three types of behavioral experiments that are regarded as classical for determining the antidepressant activity of a substance (Nestler E. J., Gould E., Manji H., Buncan M., Duman R. S., Greshenfeld H. K., Hen, R. et al. “Preclinical models: status of basic research in depression” Biol Psychiatry. 15, 503-528 (2002) (20) and Cryan, J. & Holmes, A. “The ascent of mouse: advances in modeling human depression and anxiety” Nat Rev Drug Discov. 4, 775-790 (2005) (21)). The effects of the propeptide of the present invention were compared with those of the saline solution in which it is dissolved and with those of fluoxetine, one of the most-used antidepressants in clinical practice. The mouse strain used is C57Black/J strain. TREK-1^−/− mice were also measured in these various tests.
# (§5) In the next two tests, the propeptide of the present invention was administered by the IV route at a rate of 100 μl at 1 μM per animal.
# B. Tail Suspension Test (TST)
# (see Cryan, J. & Holmes, A. (2005) (21) and Ripoll, N., David, D., Dailly, E., Hascoet, M. & Bourin, M. “Antidepressant-like effects in various mice strains in the tail suspension” Behav Brain Res. 143(2:193-200 (2003) (22).)
# The experiment, 30 min after injection of the test substance in the mouse, consists of suspending the mouse by the tail by means of an adhesive ribbon and measuring the immobility time for 6 min.
# C57BL6/J mice [5] = test: Focal ischemia (middle cerebral artery occlusion), infarct size; assay type: in vivo, mouse; conditions: daily IP 100 μl at 10^−5 M for a week, vs physiological saline
# Protocol: The model used for inducing a CVA is that of focal ischemia, which consists of occlusion of the middle cerebral artery with a thread (Heurteaux C., Laigle, C., Blondeau, N., Jarretou, G., Lazdunski, M. “Alpha-linolenic acid and riluzole treatment confer cerebral protection and improve survival after focal brain ischemia” Neuroscience, 137: 241-251 (2006) (27). The size of the infarcts caused by this focal ischemia was measured after staining brain sections with cresyl violet. The infarct is measured by tracing the contour of the infarct zone by an image analysis system (Olympus DP Soft) according to the method described in Heurteaux et al., 2006 (27). The brains of C57BL6/J mice (at the rate of 10 mice per experimental group) are treated for a week with a daily intraperitoneal injection of 100 μl of a solution containing either the peptide of sequence ID No. 2 at a concentration of 10^−5M (“PE 10^−5M” group), or with a solution of physiological saline solution (“PHYS SALINE” group). The values were compared between the two groups.
# as §3
# mouse (C57Black/J) [6] = test: Conditioned motility suppression test (CMST); assay type: in vivo; conditions: propeptide IV 100 μl at 1 μM per animal; 30 min after injection
# From the text: as §4, §5
# C. Conditioned Motility Suppression Test (CMST) (see Daugé, V., Sebret, A., Beslot, F., Matsui, T., & Rogues B. “Behavioral profile of CCK2 receptor-deficient mice” Neuropsychopharmacol; 25: 690-698 (2001) (23).
# The experiment consists of conditioning the mouse on day 1, and measuring the effects of the substances on day 2.
# On day 1, each mouse is placed in a box where the floor is a metal grille connected to an electric stimulator. […]
sequence,measurement,setting,value
"APLPRWSGPIGVSWGLR [propeptide, APLPRWSGPIGVSWGLR]",time to withdraw tail from bath,C57BL6/J mice [1],8.3 ± 0.7 s
same,neurogenesis (BrdU-labeled cells),[2],considerable neurogenesis comparable to that induced by fluoxetine
same,reaction time on hot plate,C57BL6/J mice [3]; 50° C.,21.1 ± 1.5 s
same,reaction time on hot plate,C57BL6/J mice [3]; 56° C.,4.6 ± 0.9 s
same,effect on immobility time,mouse (C57Black/J) [4],comparable to those produced by fluoxetine
same,size of the infarct caused by focal ischemia,C57BL6/J mice [5],does not have a significant effect
same,motility relative to untreated shocked mice,mouse (C57Black/J) [6],7 times greater
